In ChEMBL document CHEMBL2046354, “Identification of spirocyclic piperidine-azetidine inverse agonists of the ghrelin receptor” (Bioorg Med Chem Lett, 2012):

Test: Oral bioavailability in Sprague-Dawley rat at 30 mg/kg
Type: ADME, organism-based
Details: in vivo

Q: Which bioavailability does the source give for `Cc1cn2cc(CC(=O)N3CCC4(CC3)CN(Cc3ccc(-n5nccn5)cc3Cl)C4)nc2s1` here?
A: 43%
